The text below walks through data of ChEMBL document CHEMBL3232727, “Evaluation of bisindole as potent β-glucuronidase inhibitors: synthesis and in silico based studies” (Bioorg Med Chem Lett, 2014).

The target of one assay is T1, Beta-glucuronidase (Bos taurus) (UniProt A3KMY8).
T1 sequence (whole entry): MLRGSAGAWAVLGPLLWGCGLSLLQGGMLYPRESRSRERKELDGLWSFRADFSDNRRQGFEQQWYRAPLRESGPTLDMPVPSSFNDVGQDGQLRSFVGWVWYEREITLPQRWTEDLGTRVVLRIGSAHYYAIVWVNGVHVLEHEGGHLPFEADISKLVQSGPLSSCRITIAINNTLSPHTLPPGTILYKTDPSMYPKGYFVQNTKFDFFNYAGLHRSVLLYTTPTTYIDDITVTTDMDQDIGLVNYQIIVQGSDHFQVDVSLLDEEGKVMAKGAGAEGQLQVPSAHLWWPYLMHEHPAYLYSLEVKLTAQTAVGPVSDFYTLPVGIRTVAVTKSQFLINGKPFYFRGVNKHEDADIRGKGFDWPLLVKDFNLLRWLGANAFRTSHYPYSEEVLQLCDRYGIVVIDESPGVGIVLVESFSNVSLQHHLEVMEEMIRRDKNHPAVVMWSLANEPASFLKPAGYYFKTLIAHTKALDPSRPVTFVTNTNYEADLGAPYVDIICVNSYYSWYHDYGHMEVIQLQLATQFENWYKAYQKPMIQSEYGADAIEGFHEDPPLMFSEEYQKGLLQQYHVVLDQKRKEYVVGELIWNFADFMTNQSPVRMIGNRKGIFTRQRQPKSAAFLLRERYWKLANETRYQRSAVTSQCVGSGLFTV
The experiment in a line: (§1) Inhibition of bovine liver beta-glucuronidase using p-nitrophenyl-beta-D-glucuronide as substrate after 30 mins by spectrophotometry. On the set-up: concentration or dose not given beside the values.
As usually defined, the inhibition is the change of the read-out against control, counted positive when it falls. In turn, `CSc1ccc(C(c2c[nH]c3ccc(C#N)cc23)c2c[nH]c3ccc(C#N)cc23)cc1` gave an inhibition of less than 50%.

For the molecule `N#Cc1ccc2[nH]cc(C(c3ccc(Cl)c(Cl)c3)c3c[nH]c4ccc(C#N)cc34)c2c1`, the inhibition was less than 50%.

For `CSc1ccc(C(c2c[nH]c3ccc(Br)cc23)c2c[nH]c3ccc(Br)cc23)cc1`, the inhibition was less than 50%.

Molecule `COc1cc(C(c2c[nH]c3ccc(Br)cc23)c2c[nH]c3ccc(Br)cc23)ccc1O` displayed an inhibition of less than 50%.

For `O=[N+]([O-])c1ccc(C(c2c[nH]c3ccc(Br)cc23)c2c[nH]c3ccc(Br)cc23)cc1`, the inhibition was less than 50%.

In the case of `O=[N+]([O-])c1ccccc1C(c1c[nH]c2ccc(Br)cc12)c1c[nH]c2ccc(Br)cc12`, the inhibition was less than 50%.

In the case of `COc1ccccc1C(c1c[nH]c2ccc(Br)cc12)c1c[nH]c2ccc(Br)cc12`, the inhibition is less than 50%.

Another assay concerns the target T2, Beta-glucuronidase (Bos taurus, UniProt A3KMY8).
T2 sequence (A3KMY8 whole entry): T1 sequence (whole entry)
The description is as §1.
A word on the IC50: it is the concentration that gives 50% inhibition. `Clc1ccc(C(c2c[nH]c3ccc(Br)cc23)c2c[nH]c3ccc(Br)cc23)cc1Cl`: 21.5 µM corresponded to half-maximal inhibition (IC50).

Turning to `Oc1ccc(C(c2c[nH]c3ccc(Br)cc23)c2c[nH]c3ccc(Br)cc23)c(O)c1`, it took 1.62 µM to reach half-maximal inhibition (IC50).

In turn, `Cc1ccccc1C(c1c[nH]c2ccc(Br)cc12)c1c[nH]c2ccc(Br)cc12` returned an IC50 of 20.9 µM.

On to `Fc1ccccc1C(c1c[nH]c2ccc(Br)cc12)c1c[nH]c2ccc(Br)cc12`, for which the IC50 was determined as 18.4 µM.

`Clc1cccc(C(c2c[nH]c3ccc(Br)cc23)c2c[nH]c3ccc(Br)cc23)c1` came in with an IC50 of 22.3 µM.

In turn, `N#Cc1ccc2[nH]cc(C(c3ccccc3[N+](=O)[O-])c3c[nH]c4ccc(C#N)cc34)c2c1` displayed an IC50 of 19.9 µM.
